In patent US20190000905A1, “Gynostemma pentaphyllum fermented extracts comprising Saponins as an active functional food ingredient and preparation method thereof” (BTC Co., Ltd., priority 2017, published 2019):

How the values were obtained:
Type in all cases: cell-based
[1] = system: AMPK; test: Effect of saponins of the extract on activity of AMPK in 3T3-L1 cells (p-AMPK); settings: FIG. 1 and FIG. 2
Description: (§1) The effect of the saponins of the extract according to the present disclosure on the activity of AMPK, ACC and FAS in 3T3-L1 cells is shown in FIG. 1 and FIG. 2. AMPK is an enzyme involved in fatty acid oxidation, inhibition of adipocyte differentiation, etc. It is involved in inhibition of fatty acid biosynthesis and fatty acid degradation by phosphorylating (inactivating) ACC through AMPK phosphorylation (p-AMPK). FAS (fatty acid synthase) plays a role of promoting fatty acid synthesis.

[2] = system: ACC; test: Effect of saponins of the extract on activity of ACC in 3T3-L1 cells (p-ACC); settings: FIG. 1 and FIG. 2
Description: as §1

[3] = system: FAS (fatty acid synthase); test: Effect of saponins of the extract on FAS expression in 3T3-L1 cells; settings: FIG. 1 and FIG. 2
Description: as §1

[4] = system: fat accumulation; test: Effect of saponins of the fermented extract on fat accumulation (FIG. 3); settings: as compared to a control group
Description: The effect of the saponins of the extract of fermented Gynostemma pentaphyllum according to the present disclosure on fat accumulation was investigated.

| Compound | activation of p-AMPK [1] | activation of p-ACC [2] | expression of FAS (fatty acid synthase) [3] | inhibition of fat accumulation [4] |
| --- | --- | --- | --- | --- |
| CC(C)=CCC[C@](C)(O)[C@H]1CC[C@]2(C)[C@@H]1[C@H](O)C[C@@H]1[C@@]3(C)CC[C@H](O[C@@H]4O[C@H](CO)[C@@H](O)[C@H](O)[C@H]4O[C@@H]4O[C@H](CO)[C@@H](O)[C@H](O)[C@H]4O)C(C)(C)[C@@H]3CC[C@]12C [ginsenoside Rg3] | activated p-AMPK and p-ACC in a concentration-dependent manner | activated p-AMPK and p-ACC in a concentration-dependent manner | inhibiting the expression of FAS | exhibited an effect of inhibiting fat accumulation |
| CC(C)=CCC[C@@](C)(O)[C@H]1CC[C@]2(C)[C@@H]1[C@H](O)C[C@@H]1[C@@]3(C)C[C@@H](O)[C@H](O[C@@H]4O[C@H](CO)[C@@H](O)[C@H](O)[C@H]4O[C@@H]4O[C@H](CO)[C@@H](O)[C@H](O)[C@H]4O)C(C)(C)[C@@H]3CC[C@]12C [gypenoside LI] | activated p-AMPK and p-ACC in a concentration-dependent manner | activated p-AMPK and p-ACC in a concentration-dependent manner | inhibiting the expression of FAS | exhibited an effect of inhibiting fat accumulation |
| CC(C)=CCC[C@](C)(O)[C@H]1CC[C@]2(C)[C@@H]1[C@H](O)C[C@@H]1[C@@]3(C)C[C@@H](O)[C@H](O[C@@H]4O[C@H](CO)[C@@H](O)[C@H](O)[C@H]4O[C@@H]4O[C@H](CO)[C@@H](O)[C@H](O)[C@H]4O)C(C)(C)[C@@H]3CC[C@]12C [gypenoside L] |  |  |  | exhibited an effect of inhibiting fat accumulation |
